Results on 2 molecules are retold here after US20210198313A1, “METHOD OF PRODUCING IMIDAZOLE DIPEPTIDES” (Tokai Bussan Co., Ltd., priority 2019, published 2021).

Data set [1] can be described thus: Dissociation constants disclosed in published references. It counts as physicochemical. The conditions noted are these: converted from literature pKb 9.20. The text has this: For example, Bate-Smith (Bate-Smith, E. C., J. Physiol. (London) 92, 336 (1938)) discloses the results that pK2 of carnosine was 6.83, and Doutsch et al. (Dutch, A., Eggleton, P., Biochem. J. 32, 209 (1938)), discloses the results that pK2 of anserin was 7.04. In these references, pK2 means the dissociation constant of imidazole group and corresponds to pKR in Table 1. […] If converted to pKR, it is 4.8. Thus, each pKR for anserine, carnosine and creatinine in Table 1 was well consistent with the data described in the references.

For data set [2] the following is noted: cited from earlier work.
Data set [3] can be described thus: Titration of 0.1 M aqueous solutions with 0.1 N sulfuric acid and 0.1 N sodium hydroxide to determine dissociation constants and charge state. It counts as physicochemical. The text has this:
In view of the difference between the adsorption behaviors of imidazole dipeptides, including anserine and carnosine, and creatinine on a strongly acidic cation exchange resin, each electrical dissociation behavior of the compounds with respect to pH values was experimentally measured by the titration method as mentioned below. The terms “pK” and “pI” are the dissociation constant and the isoelectric point, respectively.
The 0.1 M aqueous solutions of L-anserine, L-carnosine and creatinine were prepared and the titration curves were generated with 0.1 N sulfuric acid and 0.1 N sodium hydroxide according to known methods. From each titration curve, pK1, pKR and pK2 were determined.
In Table 1, with respect to anserine and carnosine, pK1 represents the dissociation of carboxyl group, pKR represents the dissociation of imidazole group, and pK2 represents the dissociation of amino group. With respect to creatinine, pKR represents the dissociation of imidazole group.
Based on the measured results, the state of the charge of anserine, carnosine and creatinine at each pH value is shown in FIG. 1.

Setting [4] is: 0.1 M aqueous solution, titration curve.

A word on the pKb: it is −log10 of the Kb, conventionally taken in molar units. As for `CN1CC(=O)NC1=N` [Creatinine, creatinine], the “pKR converted from pKb” value in data set [1] is reported as 4.8. Also, in data set [2] (literature (Eadie and Hunter 1926)), the pKb is on record as 9.20.

`NCCC(=O)N[C@@H](Cc1c[nH]cn1)C(=O)O` [Carnosine, β-alanyl histidine]: in data set [3] (setting [4]), the “pI (isoelectric point)” value is given as 8.3, the “pK1 (dissociation of carboxyl group)” value worked out at 2.8, the “pK2 (dissociation of amino group)” value was determined as 9.8 and the “pKR (dissociation of imidazole group)” value was found to be 6.8. In data set [3] (pH 5, FIG. 1), the positive charge turned out to be 1 valent. This molecule also yielded a positive charge in data set [3] (pH 7, FIG. 1) of 0.5 valent. For the same molecule, the positive charge in data set [3] (pH 8, FIG. 1) came out at 0.1 valent. Besides, the “pK2 (dissociation constant of imidazole group, corresponds to pKR in Table 1)” value in data set [2] (literature (Bate-Smith 1938; Deutsch and Eggleton 1938)) is 6.83.
